Source: ChEMBL document CHEMBL1201862, “PubChem BioAssay data set” (2004)
Calls of active or inactive are those of the source.

Assays:
[1] = THP-1 cell cytotoxicity, dose response, cytotoxicity control for non-replicating M. tuberculosis project (AID 489025); type: functional
[2] = target: T1, Ubiquitin-conjugating enzyme E2 N (Homo sapiens, UniProt P61088); type: functional;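 note: Dose-response confirmation in a TR-FRET assay detecting UBC13-driven polyubiquitin chain formation, inhibition measured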
T1 sequence (P61088 whole entry): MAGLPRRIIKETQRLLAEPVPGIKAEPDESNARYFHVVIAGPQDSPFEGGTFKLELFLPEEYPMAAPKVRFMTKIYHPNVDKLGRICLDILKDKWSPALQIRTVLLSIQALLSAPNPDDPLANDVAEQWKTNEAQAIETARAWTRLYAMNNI

cells [3] = type: functional
Protein Wnt-3a = Protein Wnt-3a (Mus musculus, UniProt P27467); test: antagonism of Wnt3a pathway luciferase reporter – Wnt-LIGHT cells, luminescence, selectivity assay for Gli-SUFU antagonist project, dose response (AID 651570); type: functional; conditions: read-out: IC50_Mean;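 note: Wnt-LIGHT reporter cells stimulated with conditioned medium from Wnt3a-producing cells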
[4] = target: 26S proteasome non-ATPase regulatory subunit 14 (Homo sapiens, UniProt O00487); test: inhibition of proteasome subunit RPN11 – biochemical, fluorescence polarization, uHTS hits, confirmation (AID 602368); type: functional
[5] = target: T2, Corticotropin-releasing factor receptor 2/Corticotropin-releasing factor-binding protein (Homo sapiens, UniProt P24387+Q13324); test: activators of CRF receptor 2 with binding protein – uHTS hits, confirmation (AID 602473); type: functional; conditions: read-out: EC50_Mean
T2 sequence (Q13324 whole entry): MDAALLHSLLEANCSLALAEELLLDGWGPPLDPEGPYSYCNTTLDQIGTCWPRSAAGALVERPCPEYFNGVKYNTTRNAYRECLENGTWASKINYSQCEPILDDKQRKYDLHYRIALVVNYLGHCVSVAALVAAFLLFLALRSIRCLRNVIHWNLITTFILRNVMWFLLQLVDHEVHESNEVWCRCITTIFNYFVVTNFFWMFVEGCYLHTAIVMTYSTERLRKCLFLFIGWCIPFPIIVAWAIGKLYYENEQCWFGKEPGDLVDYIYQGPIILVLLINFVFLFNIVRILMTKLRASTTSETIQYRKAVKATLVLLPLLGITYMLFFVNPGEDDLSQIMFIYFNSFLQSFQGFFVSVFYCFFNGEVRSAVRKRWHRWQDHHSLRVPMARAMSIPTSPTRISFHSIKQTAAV
T2 sequence (P24387 whole entry): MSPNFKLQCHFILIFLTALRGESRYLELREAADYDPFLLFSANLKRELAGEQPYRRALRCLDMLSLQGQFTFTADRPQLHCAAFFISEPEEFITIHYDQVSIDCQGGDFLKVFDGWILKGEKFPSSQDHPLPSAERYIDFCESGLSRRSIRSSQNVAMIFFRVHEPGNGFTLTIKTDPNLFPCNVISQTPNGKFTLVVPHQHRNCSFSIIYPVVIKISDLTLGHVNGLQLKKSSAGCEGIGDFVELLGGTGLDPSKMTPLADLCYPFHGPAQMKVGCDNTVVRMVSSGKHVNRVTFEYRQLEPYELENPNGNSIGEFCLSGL

[6] = target: 72 kDa type IV collagenase (Homo sapiens, UniProt P08253); test: Dose Response validation of uHTS RPN11 inhibitor hits using a MMP-2 Fluorescence assay.; type: functional
Prothrombin = Prothrombin (Bos taurus, UniProt P00735); test: thrombin protease inhibitors – biochemical, fluorescence polarization, uHTS hits, dose response (AID 602369); type: functional
Beta-galactosidase = Beta-galactosidase (Escherichia coli, UniProt Q8VNN2); test: Dose response counterscreen for EBI2 assay utilizing the enzyme, b-galactosidase.; type: functional
[7] = Luminescence Cell-Based Dose Confirmation HTS to Identify Activators of 5'UTR Stem-Loop Driven Alpha-Synuclein mRNA Translation in H4 Neuroglioblastoma Cells. [Related pubchem assays: 1829 (Project Summary), 1814 (Primary HTS)]; type: functional
[8] = Luminescence Cell-Based Dose Response HTS to Identify Activators of Luciferase Translation or Activity in H4 […] Cells. [Related pubchem assays: 1829 (Project Summary), 1814 (Primary HTS)]; type: functional
H4 = test: Luminescence Cell-Based Dose Response HTS to Identify Activators of 5'UTR Stem-Loop Driven Prion Protein mRNA Translation in H4 Neuroglioblastoma Cells. [Related pubchem assays: 1829 (Project Summary), 1814 (Primary HTS)]; type: functional; conditions: Homo sapiens
[9] = microbe, parasite or virus in culture; type: functional; conditions: Mycobacterium tuberculosis
Fatty acid synthase [10] = target: T3, Fatty acid synthase (Homo sapiens, UniProt P49327); test: inhibition of human FAS-TE enzyme activity – biochemical, endpoint fluorescence intensity, uHTS hits, dose response (AID 624327); type: functional;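 note: fluorescence from hydrolysis of an O-methyl fluorescein acyl ester substrate by the enzyme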
Fatty acid synthase [11] = target: T3, Fatty acid synthase; test: inhibition of human FAS-TE enzyme activity – biochemical, kinetic fluorescence intensity, dose response (AID 624326); type: functional;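 note: rate of fluorescence rise from hydrolysis of a fluorogenic O-methyl fluorescein ester substrate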
[12] = viability of uninfected HEp-2 cells – cell-based, HTS, cytotoxicity control for RSV inhibitor project, dose response (AID 2410); type: functional; conditions: human respiratory syncytial virus
[13] = viability loss in HeLa cells – cytotoxicity control for MgcRacGAP inhibitor project, dose response (AID 624300); type: functional
[14] = target: T4, Rac GTPase-activating protein 1 (Homo sapiens, UniProt Q9H0H5); test: blockers of MgcRacGAP-driven Rac1 GTP hydrolysis – biochemical, ADP Hunter fluorescence, primary and confirmatory, confirmation (AID 624330); type: functional
T4 sequence (Q9H0H5 whole entry): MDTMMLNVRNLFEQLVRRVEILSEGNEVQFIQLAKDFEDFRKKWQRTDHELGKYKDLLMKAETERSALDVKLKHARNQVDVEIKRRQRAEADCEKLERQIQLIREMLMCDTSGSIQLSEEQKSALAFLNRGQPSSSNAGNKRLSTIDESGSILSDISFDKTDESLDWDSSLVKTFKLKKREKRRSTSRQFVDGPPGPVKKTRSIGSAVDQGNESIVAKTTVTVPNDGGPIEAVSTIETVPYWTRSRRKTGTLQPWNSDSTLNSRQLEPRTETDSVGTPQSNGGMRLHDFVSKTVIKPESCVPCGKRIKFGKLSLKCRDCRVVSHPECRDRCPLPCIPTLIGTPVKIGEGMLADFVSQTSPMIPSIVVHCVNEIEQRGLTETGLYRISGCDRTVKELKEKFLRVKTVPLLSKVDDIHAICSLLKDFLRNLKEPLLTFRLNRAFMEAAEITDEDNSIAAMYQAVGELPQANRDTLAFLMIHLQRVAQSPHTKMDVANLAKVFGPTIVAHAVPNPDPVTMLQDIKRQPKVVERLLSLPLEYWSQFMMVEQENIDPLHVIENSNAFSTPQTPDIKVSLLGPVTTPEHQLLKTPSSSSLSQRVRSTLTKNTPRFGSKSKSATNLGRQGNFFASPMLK

[15] = intracellular Trypanosoma cruzi inhibitors in host cells – cell-based, plate reader, cherry-pick samples, set 3, dose response (AID 651818); type: functional;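 note: compounds incubated with infected cells for about four days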
[16] = NIH-3T3 fibroblast cytotoxicity, dose response, cytotoxicity control, cell-based, fluorescence, Alamar Blue, secondary assay (AID 2327); type: functional;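 note: NIH-3T3 mouse fibroblasts cultured with fluconazole at 8 µg/mL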
[17] = luciferase reporter signal suppression in cells – H4 neuroglioma cells, luminescence, dose response (AID 1990); type: functional, cell-based
[18] = decrease of insulin promoter-GFP reporter – imaging, high-content screening, mouse beta cells (AID 1628); type: functional; conditions: MIN6
BJ [19] = test: BJ-TERT fibroblast viability loss – cell-based, RAS-independent, luminescence, dose response (AID 1933); type: functional; conditions: Homo sapiens
cells [20] = type: functional, cell-based
[21] = Luminescence Cell-Based Dose Response HTS to Identify Inhibitors of 5'UTR Stem-Loop Driven Prion Protein mRNA Translation in H4 Neuroglioblastoma Cells. [Related pubchem assays: 1827 (Project Summary), 1813 (Primary HTS)]; type: functional
[22] = MIN6 cell viability loss – mouse insulinoma, cytotoxicity control, dose response (AID 2122); type: functional;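 note: confirmatory high-throughput counterscreen run to flag cytotoxic compounds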
[23] = alpha-synuclein stem-loop luciferase translation blockers – H4 neuroglioma cells, luminescence, confirmation (AID 1988); type: functional, cell-based
BJ [24] = test: cells; type: functional, cell-based; conditions: Homo sapiens
[25] = fluconazole-exposed Candida albicans growth modulators – fluorescence, retest, confirmation (AID 2467); type: functional, cell-based
[26] = Trypanosoma cruzi growth suppression in host cells – NIH3T3 host cells, beta-gal luminescence, confirmation (AID 2044); type: functional, cell-based;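 note: intracellular parasites grown in NIH/3T3 mouse fibroblasts as host cells; luminescent beta-galactosidase reporter signal from transgenic T. cruzi replicating inside host cells; inhibitors lower the luminescence signal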
cells [27] = type: functional, cell-based; remark: listed apart in the source
[28] = NIH3T3 cell viability loss – ATP luminescence, mouse fibroblasts, counter-screen, dose response (AID 2010); type: functional, cell-based;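 note: cells exposed to compound for about 90 hours before reading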
BJ [29] = test: BJ-TERT-LT-ST fibroblast viability loss – cell-based, RAS-independent, luminescence, dose response (AID 1935); type: functional; conditions: Homo sapiens;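 note: BJ fibroblasts immortalized with TERT plus LT and ST oncogenes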
[30] = DRD fibroblast viability loss – cell-based, non-viral oncogenic, luminescence, dose response (AID 1934); type: functional; conditions: Homo sapiens
HEK293 = test: EBV LMP1 TES2 canonical NF-kB signalling blockers – cell-based, HEK293, luciferase, cherry-pick, dose response (AID 588343); type: functional; conditions: Homo sapiens
INS1 = test: INS-1E survival protection against cytokine death – cell-based, luminescence, retest, dose response (AID 449756); type: functional; conditions: Rattus norvegicus;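 note: cell death triggered by IL-1 beta plus TNF-alpha plus IFN-gamma mixture; protective hits raise ATP signal compared with cytokine alone wells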
Cytochrome P450 3A4 = Cytochrome P450 3A4 (Homo sapiens, UniProt P08684);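 note: CYP3A4 tested as one member of a cytochrome P450 panel screen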

Sequence of Beta-galactosidase (Q8VNN2 whole entry): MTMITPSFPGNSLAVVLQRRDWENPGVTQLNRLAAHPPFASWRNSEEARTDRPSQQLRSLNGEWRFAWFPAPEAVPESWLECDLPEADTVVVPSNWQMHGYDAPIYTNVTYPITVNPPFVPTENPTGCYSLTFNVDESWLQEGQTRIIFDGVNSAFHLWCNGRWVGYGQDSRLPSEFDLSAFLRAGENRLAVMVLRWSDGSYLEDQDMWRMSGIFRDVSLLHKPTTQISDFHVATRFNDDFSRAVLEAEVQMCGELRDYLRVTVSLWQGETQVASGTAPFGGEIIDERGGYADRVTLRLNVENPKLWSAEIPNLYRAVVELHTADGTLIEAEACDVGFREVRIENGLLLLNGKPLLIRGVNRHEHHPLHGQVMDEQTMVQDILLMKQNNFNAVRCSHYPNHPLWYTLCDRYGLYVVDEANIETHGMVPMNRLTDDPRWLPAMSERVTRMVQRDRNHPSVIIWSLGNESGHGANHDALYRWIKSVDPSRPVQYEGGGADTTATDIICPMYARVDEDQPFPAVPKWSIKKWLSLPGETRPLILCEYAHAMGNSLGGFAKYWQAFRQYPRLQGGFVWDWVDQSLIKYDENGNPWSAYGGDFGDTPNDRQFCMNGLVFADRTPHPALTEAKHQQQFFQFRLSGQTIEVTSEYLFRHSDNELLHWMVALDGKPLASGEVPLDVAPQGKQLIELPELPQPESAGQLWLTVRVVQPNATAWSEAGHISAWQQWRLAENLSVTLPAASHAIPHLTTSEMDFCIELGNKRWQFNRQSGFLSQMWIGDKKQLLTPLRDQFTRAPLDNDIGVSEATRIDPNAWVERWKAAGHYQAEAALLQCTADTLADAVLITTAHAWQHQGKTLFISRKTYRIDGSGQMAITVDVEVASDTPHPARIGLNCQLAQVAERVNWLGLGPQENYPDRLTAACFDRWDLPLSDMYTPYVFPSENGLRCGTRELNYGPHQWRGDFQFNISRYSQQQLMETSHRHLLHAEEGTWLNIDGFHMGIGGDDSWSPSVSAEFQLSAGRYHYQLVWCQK
Sequence of 72 kDa type IV collagenase (P08253 whole entry): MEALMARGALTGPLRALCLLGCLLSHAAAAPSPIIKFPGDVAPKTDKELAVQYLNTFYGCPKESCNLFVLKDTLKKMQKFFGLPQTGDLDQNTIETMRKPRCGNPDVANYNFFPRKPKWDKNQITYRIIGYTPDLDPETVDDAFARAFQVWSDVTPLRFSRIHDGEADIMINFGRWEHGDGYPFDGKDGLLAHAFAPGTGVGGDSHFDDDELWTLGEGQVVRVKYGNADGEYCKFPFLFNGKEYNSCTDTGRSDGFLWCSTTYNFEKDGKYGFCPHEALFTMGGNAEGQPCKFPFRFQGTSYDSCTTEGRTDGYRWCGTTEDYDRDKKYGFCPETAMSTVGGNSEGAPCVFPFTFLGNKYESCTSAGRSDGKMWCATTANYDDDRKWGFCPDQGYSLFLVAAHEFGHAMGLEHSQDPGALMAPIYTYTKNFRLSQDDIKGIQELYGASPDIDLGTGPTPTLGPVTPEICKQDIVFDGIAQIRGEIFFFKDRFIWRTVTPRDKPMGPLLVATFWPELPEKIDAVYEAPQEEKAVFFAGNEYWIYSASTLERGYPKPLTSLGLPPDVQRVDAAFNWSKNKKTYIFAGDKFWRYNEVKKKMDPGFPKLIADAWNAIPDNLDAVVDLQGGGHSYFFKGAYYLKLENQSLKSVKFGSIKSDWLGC
Sequence of 26S proteasome non-ATPase regulatory subunit 14 (O00487 whole entry): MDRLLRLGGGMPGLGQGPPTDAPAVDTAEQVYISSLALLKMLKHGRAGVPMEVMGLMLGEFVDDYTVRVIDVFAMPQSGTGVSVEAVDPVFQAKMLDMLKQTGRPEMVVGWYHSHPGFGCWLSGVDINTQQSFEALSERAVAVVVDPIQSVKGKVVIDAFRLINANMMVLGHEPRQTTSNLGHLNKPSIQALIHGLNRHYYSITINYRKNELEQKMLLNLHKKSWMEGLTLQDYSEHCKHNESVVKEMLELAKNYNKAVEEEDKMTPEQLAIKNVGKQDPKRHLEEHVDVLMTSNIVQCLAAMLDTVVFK
T3 sequence (P49327 whole entry): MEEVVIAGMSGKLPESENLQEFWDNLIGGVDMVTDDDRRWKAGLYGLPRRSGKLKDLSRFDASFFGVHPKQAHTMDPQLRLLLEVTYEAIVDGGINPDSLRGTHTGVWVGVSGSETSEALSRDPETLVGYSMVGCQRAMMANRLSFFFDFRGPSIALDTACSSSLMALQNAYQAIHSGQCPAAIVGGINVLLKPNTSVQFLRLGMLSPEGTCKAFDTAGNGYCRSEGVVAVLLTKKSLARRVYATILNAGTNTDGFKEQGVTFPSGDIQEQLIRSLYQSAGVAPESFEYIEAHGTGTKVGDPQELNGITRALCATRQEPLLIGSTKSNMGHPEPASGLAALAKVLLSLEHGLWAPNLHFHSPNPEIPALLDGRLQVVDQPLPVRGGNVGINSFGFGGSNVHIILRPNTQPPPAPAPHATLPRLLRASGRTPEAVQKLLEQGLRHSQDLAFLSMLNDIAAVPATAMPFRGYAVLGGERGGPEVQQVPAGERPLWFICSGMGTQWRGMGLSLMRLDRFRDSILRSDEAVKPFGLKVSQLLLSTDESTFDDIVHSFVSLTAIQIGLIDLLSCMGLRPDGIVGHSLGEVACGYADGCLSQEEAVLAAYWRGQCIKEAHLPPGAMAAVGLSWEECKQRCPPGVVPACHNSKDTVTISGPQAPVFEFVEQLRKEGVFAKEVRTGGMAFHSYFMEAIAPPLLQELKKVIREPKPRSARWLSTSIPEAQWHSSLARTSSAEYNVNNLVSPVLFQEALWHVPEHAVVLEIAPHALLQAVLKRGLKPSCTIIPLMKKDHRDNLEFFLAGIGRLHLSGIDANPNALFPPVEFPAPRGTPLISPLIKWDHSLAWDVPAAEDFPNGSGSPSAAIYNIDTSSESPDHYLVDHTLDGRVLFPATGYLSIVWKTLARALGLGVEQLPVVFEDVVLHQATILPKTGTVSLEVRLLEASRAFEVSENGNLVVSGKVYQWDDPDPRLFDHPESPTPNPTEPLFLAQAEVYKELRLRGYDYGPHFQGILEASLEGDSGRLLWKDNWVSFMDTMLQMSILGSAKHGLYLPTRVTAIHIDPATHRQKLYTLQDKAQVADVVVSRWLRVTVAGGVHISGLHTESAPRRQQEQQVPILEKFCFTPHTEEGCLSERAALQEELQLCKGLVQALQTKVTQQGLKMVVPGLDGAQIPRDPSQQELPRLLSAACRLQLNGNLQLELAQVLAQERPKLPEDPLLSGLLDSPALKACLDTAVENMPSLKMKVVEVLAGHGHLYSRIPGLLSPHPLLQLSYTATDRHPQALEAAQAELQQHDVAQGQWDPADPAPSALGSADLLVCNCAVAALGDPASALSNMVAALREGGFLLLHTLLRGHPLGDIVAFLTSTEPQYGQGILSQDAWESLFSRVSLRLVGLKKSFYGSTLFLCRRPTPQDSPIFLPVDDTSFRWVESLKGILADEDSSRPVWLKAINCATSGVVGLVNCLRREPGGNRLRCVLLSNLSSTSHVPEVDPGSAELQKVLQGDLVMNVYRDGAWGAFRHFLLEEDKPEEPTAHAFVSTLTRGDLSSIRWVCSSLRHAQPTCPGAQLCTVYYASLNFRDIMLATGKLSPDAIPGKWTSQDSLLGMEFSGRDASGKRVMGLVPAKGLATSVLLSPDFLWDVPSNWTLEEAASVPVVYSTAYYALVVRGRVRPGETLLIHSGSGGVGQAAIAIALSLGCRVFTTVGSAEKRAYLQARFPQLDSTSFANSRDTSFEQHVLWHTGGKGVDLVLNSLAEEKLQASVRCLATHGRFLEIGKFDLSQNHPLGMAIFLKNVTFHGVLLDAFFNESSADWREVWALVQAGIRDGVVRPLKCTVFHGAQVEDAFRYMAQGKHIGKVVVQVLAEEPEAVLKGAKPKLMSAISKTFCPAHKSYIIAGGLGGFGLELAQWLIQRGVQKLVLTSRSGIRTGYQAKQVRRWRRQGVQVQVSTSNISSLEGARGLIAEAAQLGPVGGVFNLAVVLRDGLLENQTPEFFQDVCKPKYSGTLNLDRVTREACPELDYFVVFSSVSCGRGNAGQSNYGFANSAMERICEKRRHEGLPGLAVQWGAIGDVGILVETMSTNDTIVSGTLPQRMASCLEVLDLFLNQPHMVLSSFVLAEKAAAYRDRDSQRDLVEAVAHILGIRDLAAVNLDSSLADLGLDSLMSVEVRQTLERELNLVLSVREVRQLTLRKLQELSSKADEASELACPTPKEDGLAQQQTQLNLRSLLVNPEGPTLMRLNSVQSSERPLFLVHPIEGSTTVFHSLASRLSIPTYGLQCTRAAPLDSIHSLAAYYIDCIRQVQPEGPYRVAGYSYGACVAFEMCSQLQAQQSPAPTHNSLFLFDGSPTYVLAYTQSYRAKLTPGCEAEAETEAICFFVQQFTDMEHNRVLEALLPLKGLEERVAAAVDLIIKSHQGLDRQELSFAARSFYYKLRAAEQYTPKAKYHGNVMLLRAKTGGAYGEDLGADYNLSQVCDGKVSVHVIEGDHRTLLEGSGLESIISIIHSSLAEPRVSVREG
Sequence of Protein Wnt-3a (P27467 whole entry): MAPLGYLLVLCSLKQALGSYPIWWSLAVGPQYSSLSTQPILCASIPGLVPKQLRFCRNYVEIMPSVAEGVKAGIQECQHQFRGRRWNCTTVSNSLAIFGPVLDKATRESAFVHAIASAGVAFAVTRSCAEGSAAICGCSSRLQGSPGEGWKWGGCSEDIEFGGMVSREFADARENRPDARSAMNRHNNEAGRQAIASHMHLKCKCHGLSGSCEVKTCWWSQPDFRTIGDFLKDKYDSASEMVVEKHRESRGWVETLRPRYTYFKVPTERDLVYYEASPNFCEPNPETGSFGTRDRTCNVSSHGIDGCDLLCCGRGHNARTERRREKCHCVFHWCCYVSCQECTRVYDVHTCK

## CCC(C)[C@H]1CN=C(N)N1CCc1cccc2ccccc12 (some centres not stated)
[1]
  CC50: 15.8 µM (active)
[2]
  IC50: > 20 µM (inactive)
Cells [3]
  IC50: 22.5 µM (active)
Protein Wnt-3a
  IC50: 6.06 µM (active)

## CCOc1cc(/C=C2\C(=N)N3N=C(CC(=O)N4CCCCC4)SC3=NC2=O)ccc1O
[4]
  IC50: 37.6 µM (active)
[5]
  EC50: 6.32 µM (active)
[6]
  IC50: > 100 µM (inactive)
Prothrombin
  IC50: 33.4 µM (active)

## CCc1ccc2oc(C(=O)N3CCN(c4ccccc4OC)CC3)cc(=O)c2c1
Beta-galactosidase
  IC50: > 80 µM (inactive)

## C(=N\NC1=Nc2cccc3cccc1c23)/c1cccnc1
[7]
  EC50: 0.128 µM (active)
[8]
  EC50: 2.39 µM (active)
H4
  EC50: > 120 µM (not active)
[9]
  CC50: > 40 µM (active)
[4]
  IC50: 11.9 µM (active)
[6]
  IC50: > 100 µM (inactive)
Prothrombin
  IC50: 14 µM (active)

## Nc1c(-c2cccc(Cl)c2)cnn1-c1cccc([N+](=O)[O-])c1
Fatty acid synthase [10]
  IC50: 11 µM (active)
Fatty acid synthase [11]
  IC50: 12 µM (active)

## Cc1ccc(C2CC(c3cccs3)=NN2S(=O)(=O)c2ccc(C)cc2)cc1 (configuration not stated)
[12]
  CC50: > 50 µM (active)
[4]
  IC50: 43.4 µM (active)
[6]
  IC50: > 100 µM (inactive)
Prothrombin
  IC50: 55.9 µM (active)

## O=C(c1cc(COc2cccc(C(F)(F)F)c2)on1)N1C[C@@H]2CCC[C@H]1C2
Fatty acid synthase [10]
  IC50: 12.4 µM (active)
Fatty acid synthase [11]
  IC50: 10.7 µM (active)

## Cc1c(C(=O)N/N=C/c2ccc(O)c(Br)c2)sc(N)c1C#N
[4]
  IC50: 49.8 µM (active)
[6]
  IC50: > 100 µM (inactive)
Prothrombin
  IC50: 48.9 µM (active)
[13]
  CC50: 78.2 µM (active)
[14]
  IC50: 97.3 µM (active)

## C[C@H]1CN([C@@H](C)CO)C(=O)c2cc(NC(=O)Cc3cn(C)c4ccccc34)ccc2O[C@H]1CN(C)Cc1ccc(-c2ccccc2)cc1
[15]
  AC50: 3.27 µM (active)

## C[C@@H]1CN([C@@H](C)CO)C(=O)c2cc(NS(=O)(=O)c3ccc(Cl)cc3)ccc2O[C@@H]1CN(C)Cc1ccc(-c2ccccc2)cc1
[15]
  AC50: 3.31 µM (active)

## C[C@@H]1CN([C@H](C)CO)C(=O)c2cc(NC(=O)Nc3ccc(C(F)(F)F)cc3)ccc2O[C@H]1CN(C)S(=O)(=O)c1ccccc1
[15]
  AC50: 7.36 µM (active)

## COc1ccc(/C=C(\C#N)C(=O)Nc2cc(S(=O)(=O)N3CCOCC3)ccc2N2CCCC2)cc1
Beta-galactosidase
  IC50: > 80 µM (inactive)

## COc1ccc(O)c(/C=N/NC(=O)c2ccc(OCc3cccc(Br)c3)cc2)c1
[16]
  EC50: 17.5 µM (inconclusive)
[17]
  EC50: 0.239 µM (active)
[18]
  IC50: 3.56 µM (active)
BJ [19]
  EC50: 9.05 µM (active)
Cells [20]
  EC50: > 350 µM (not active)
[21]
  EC50: 6.79 µM (active)
[22]
  IC50: 2.84 µM (active)
[23]
  EC50: 2.97 µM (active)
BJ [24]
  EC50: 110 µM (active)
[25]
  EC50: > 38 µM (not active)
[26]
  EC50: 0.77 µM (active)
Cells [27]
  EC50: > 350 µM (not active)
[28]
  EC50: 7.23 µM (active)
BJ [29]
  EC50: 20.1 µM (active)
[30]
  EC50: 16.3 µM (active)
HEK293
  AC50: 3.86 µM (active)
INS1
  AC50: 2.61 µM (active)
[4]
  IC50: 37.9 µM (active)
[6]
  IC50: > 100 µM (inactive)
Prothrombin
  IC50: 68.3 µM (active)
Cytochrome P450 3A4
  AC50: 7.08 µM (inconclusive)

## O=C(CSc1ccc([N+](=O)[O-])cn1)Nc1ccc2c(c1)OCCO2
Fatty acid synthase [10]
  IC50: 1.51 µM (active)
Fatty acid synthase [11]
  IC50: 4.17 µM (active)

## O=C(/C=C/c1ccccc1)N1CCN(c2cccc(Cl)n2)CC1
Beta-galactosidase
  IC50: > 80 µM (inactive)

## CN(CCOc1ccccc1)CC(=O)Nc1ccc([N+](=O)[O-])cc1Cl
Fatty acid synthase [10]
  IC50: 9.54 µM (active)
Fatty acid synthase [11]
  IC50: 12.7 µM (active)

## C[C@@H]1CCCCO[C@@H](CN(C)Cc2ccc(Cl)c(Cl)c2)[C@@H](C)CN([C@H](C)CO)C(=O)c2cc(NC(=O)C3CCCCC3)ccc2O1
[15]
  AC50: 2.9 µM (active)

## COc1ccc(-c2nn(CCC#N)cc2C(=O)Nc2ccc(C(C)=O)cc2)cc1[N+](=O)[O-]
Fatty acid synthase [10]
  IC50: 1.41 µM (active)
Fatty acid synthase [11]
  IC50: 4.1 µM (active)
